Reference: article PMC3131786 (Journal of Medicinal Chemistry, 2011)

Tests used:
ATX = ATX activity fully restored upon washing out the inhibitor; cited from earlier work
recombinant ATX = recombinant ATX (Homo sapiens, UniProt Q13822); test: Choline release assay; format: biochemical; conditions: for residual ATX activity: at maximal inhibition in the dose-response curve (Figure S3)
[1] = cited from earlier work

Q: With `O=C1S/C(=C\c2ccc(OCc3ccc(B(O)O)cc3)cc2)C(=O)N1Cc1ccc(F)cc1` [inhibitor 1, (Z)-4-[(4-{[3-(4-Fluorobenzyl)-2,4-dioxo-1,3-thiazolan-5-yliden]methyl}phenoxy)methyl]benzene Boronic Acid] as the compound, how does the “reversibility of binding to ATX” value (ATX) read?
A: reversible

Q: With `O=C(Nc1ccc(B(O)O)cc1)c1ccc(/C=C2\SC(=O)N(Cc3ccc(F)cc3)C2=O)cc1` [inhibitor 17] as the compound, how does the “shape of dose-response curve” value (recombinant ATX; Figure S2, n=5) read?
A: biphasic curve

Q: Which “residual ATX activity” value (recombinant ATX) does the source give for `O=C(Nc1ccc(/C=C2\SC(=O)N(Cc3ccc(F)cc3)C2=O)cc1)c1ccc(B(O)O)cc1` [inhibitor 19] here?
A: 10%

Q: Which “residual ATX activity” value (recombinant ATX) does the source give for `O=C1S/C(=C\c2ccc(NCc3ccc(B(O)O)cc3)cc2)C(=O)N1Cc1ccc(F)cc1` [inhibitor 36] here?
A: no residual ATX activity

Q: Which “half-life of LPA in vivo” value [1] does the source give for lysophosphatidic acid [LPA] here?
A: ~5 min
